Experimental data reported in patent US12144799B2, “Method for long-term storage of chlorophyll-containing extract” (ABL CO., LTD, priority 2018, dated 2024).

What was measured:
[1] = Storage stability test of chlorophyll a in stabilization candidate oils (HPLC content); settings: chlorophyll a in the oil layer, room temperature storage, dark place
Description: (§1) In order to analyze the content of extracted chlorophyll, high-performance liquid chromatography (HPLC) was used. Purification was performed using the Agilent 1100 Series HPLC system from AGILENT, and the column used was Shimadzu Shim-pack C18 analytical column (250 mm×4.6 mm, 5 μm, 100). The peak was detected as ultraviolet ray absorption using a diode array detector. The injection volume was […], and the flow rate was […].
(§2) The reference material for chlorophyll a was purchased from Aldrich Chemical Co. (Milwaukee, Wis.), and was used without a further purification process.
The storage stability of chlorophyll a stabilization candidate materials used in the above process for chlorophyll-a was tested. Samples were collected for each storage period at various temperatures, and the content of chlorophyll a was analyzed using the HPLC system described above.
Temperatures for the test were respectively freezing temperature (−20° C.), refrigerating temperature (4° C.), room temperature (25° C.), high temperature (50° C.), and being left at room temperature.
In this process, ethanol was removed. Thereafter, the obtained was stored for a predetermined period in a dark place for each temperature to collect samples for each storage period, and then the content of chlorophyll a was analyzed using the HPLC system described above.

[2] = Fractional extraction of chlorophyll a from ethanol extract into oil layer (HPLC); type: physicochemical; settings: oil added 1:1 (50 ml) to ethanol extract of wheatgrass powder, stirred, layers separated for 2 minutes
Description: as §1, §2

SMILES: CC(C)=CCC/C(C)=C/CC/C(C)=C/CC/C=C(\C)CC/C=C(\C)CCC=C(C)C [squalene]
- half-life of chlorophyll a [1]: 7 months
- chlorophyll a moved to / dissolved in the oil phase [2]: more than 80%
